In assay [1] the test system is Raji. Nature of the assay: Cell growth kinetics with rapamycin, Raji. The class given is cell-based, human. The conditions noted are these: RPM at different concentrations. The method, then:
(§1) FIGS. 26A to 26E provide histograms and plots showing malignant B cell lines were sensitive to Rapamycin treatment in vitro. FIG. 26A provides histograms showing geometric median fluorescent intensity (MFI) of phosphorylated mTOR (pS2448), S6 (pS235/[…]) and 4EBP1 (pT36/T45) in JeKo-1, Raji and Nalm6 cell lines, as well as primary human monocytes and bulk lymphocytes. FIGS. 26B to 26D relate to an experiment where JeKo-1, Raji and Nalm6 cells were treated with DMSO or Rapamycin (RPM) and then analyzed for phosphorylation level of mTOR (FIG. 26B), S6 (FIG. 26C) and 4EBP1 (FIG. 26D). FIG. 26E provides plots showing JeKo-1, Raji and Nalm6 cell growth kinetics after treatment with DMSO or RPM at different concentrations. Symbols indicate mean and error bars show ±s.e.m.

The test system of assay [2] is Nalm6. Briefly: Cell growth kinetics with rapamycin, Nalm6. It is filed as cell-based, human. The conditions noted are these: RPM at different concentrations. The method, then:
as §1

The test system of assay [3] is JeKo-1.Luc cells. Briefly: Anti-tumor efficacy model, JeKo-1.Luc. It is filed as in vivo, NSG mice. The conditions noted are these: RPM 1 mg kg^−1 daily for 2 weeks. The procedure:
Immunocompromised NOD scid gamma (NSG) mice were implanted with 5E5 Jeko-1 tumor cells and the tumor cells were allowed to engraft for 6 days. After the six days of engraftment, 1E6 unedited or edited 19CAR-T cells were infused into tumor bearing mice (N=8 mice evaluated for each experimental condition) and administered daily for 2 weeks (dotted vertical lines) either a vehicle (5% PEG400+5% Tween80) or tacrolimus (10 mg/kg in 5% PEG400+5% Tween80). Tumor burden was assessed twice per week by measuring bioluminescence using an IVIS® spectral imaging instrument. In FIGS. 13A and 13B, each data point represents a measurement taken for an individual mouse.
For the study described in FIGS. 18A to 18G, NSG mice were intravenously injected with 5×10^5 JeKo-1.Luc cells at day 0. On day 7, mice initiated daily intraperitoneal injections of VEH, RPM (1 mg kg^−1), or TAC (10 mg kg^−1) for 2 weeks. […] For all studies, tumor burden was measured every 3-4 days post-implant by bioluminescence imaging (IVIS Spectrum, Spectral Instruments Imaging) 30 minutes after intraperitoneally injecting mice with 150 mg kg^−1 XenoLight D-Luciferin (PerkinElmer). The acquisition time was automatically determined by the instrument for each exposure, and quantification of flux from imaging datasets was performed with the Living Image Studio software (Perkin Elmer). […]

The test system of assay [4] is CD19^+ B cells. Briefly: B cell aplasia and 19CAR-T cell persistence in HIS mice. The class given is in vivo, huCD34-NCG mice. To be noted: TAC 10 mg kg^−1 daily; 10 days post-T cell infusion. An excerpt: FIGS. 19B and 19C provide a bar graph of cell concentration (FIG. 19B) and flow cytometry contour plots (FIG. 19C) for peripheral CD19^+ B cells 6 days post-T cell infusion from mice in Groups 1-4. FIGS. 19D and 19E provide bar graphs showing total CD19^+ B cells from individual mouse splenic (FIG. 19D) and bone marrow (FIG. 19E) tissue 10 days post-T cell infusion in Groups 1-4. FIG. 19F provides a bar graph showing geometric median fluorescent intensity (MFI) of CD19 expression on residual peripheral CD22^+ B cells 6 days post-T cell infusion from mice in Groups 1-4. FIG. 19G provides a bar graph showing concentration of peripheral CD22^+CD19^dim B cells 6 days post-T cell infusion from mice in Groups 1-4. […] Statistical significance was calculated by Wilcoxon rank sum test (FIGS. 19B, 19D, and 19E) and Kruskall-Wallace test with Dunn's test for multiple comparisons (FIGS. 19F, 19G, 19I, and 19J).
For the studies described in FIGS. 19A to 19J, huCD34-NCG mice were used in Cohort #6 (n=16), Cohort #7 (n=12), Cohort #8 (n=24), and Cohort #9 (n=12) and were evenly distributed into 4 groups via matched distribution based on degree of human T cell engraftment using StudyLog. […] Endogenous B cell aplasia and persistence of 19CAR-T cells was monitored at 7- and 11-days post-drug treatment via blood draw from the submandibular vein and tissue collection at necropsy.

Regarding `CO[C@H]1C[C@@H]2CC[C@@H](C)[C@@](O)(O2)C(=O)C(=O)N2CCCC[C@H]2C(=O)O[C@H]([C@H](C)C[C@@H]2CC[C@@H](O)[C@H](OC)C2)CC(=O)[C@H](C)/C=C(\C)[C@@H](O)[C@@H](OC)C(=O)[C@H](C)C[C@H](C)/C=C/C=C/C=C/1C` [rapamycin, Rapamycin], the in vitro proliferation entry in assay [1] and in assay [2] was “inhibited in vitro proliferation” throughout. Also, the “JeKo-1 growth in control mice” value in assay [3] was “mitigated JeKo-1 growth in control mice”.

`C=CC[C@@H]1/C=C(\C)C[C@H](C)C[C@H](OC)[C@H]2O[C@@](O)(C(=O)C(=O)N3CCCC[C@H]3C(=O)O[C@H](/C(C)=C/[C@@H]3CC[C@@H](O)[C@H](OC)C3)[C@H](C)[C@@H](O)CC1=O)[C@H](C)C[C@@H]2OC` [tacrolimus, Tacrolimus]: the “allorejection of HLA-I^+ 19CAR-T cells in peripheral blood and spleen” value in assay [4] is “protected HLA-I^+ 19CAR-T cells”.

(Values after patent publication US20260183393A1, “IMMUNOSUPPRESSANT-RESISTANT MODIFIED ALLOGENEIC MODIFIED IMMUNE CELLS AND METHODS FOR USE THEREOF” (Beam Therapeutics Inc., priority 2023, published 2026).)
